Data reported in US20240374743A1, “BLETILLA STRIATA POLYSACCHARIDE IRON COMPLEX, PREPARATION METHOD THEREFOR AND USE THEREOF” (priority 2023, published 2024).

System: mouse model of iron deficiency anemia
Test: Anti-iron deficiency anemia test in mice
Type: in vivo, ICR mice
Method: Experimental animals: 35 ICR mice, clean grade, body weight 20-25 g, female.
Establishment of a mouse model of iron deficiency anemia: All mice were kept in a stainless steel cage, in which wood dust was used as padding to prevent iron from other sources from affecting the experimental results. The mice were adaptively fed at room temperature (24±1° C.) and humidity 50% for 3 days and then randomly divided into 7 groups, with 5 mice in each group. Five mice fed with basal feed (Fe>100 mg kg^−1) were used as a blank control group, and the remaining 30 mice were given a low-iron diet (Fe: 10 mg·kg^−1, AIN93 standard) and randomly divided into a model group (Model), a positive drug (Niferex) group, a ferrous sulfate (FeSO4) group, and low-dose, medium-dose and high-dose groups of the Bletilla striata polysaccharide-iron (III) complex prepared in Example 4. After adaptive feeding, 0.1 mL of blood was taken from the cheeks of all mice, and the routine blood test data, serum iron three-term test data, and other data were determined by using a blood cell analyzer and used as normal values before modeling. Blood was drawn from the cheek of each mouse twice a week, but the blood was not collected. The mice in each group got free access to water. After three consecutive weeks of feeding, 0.2 mL of blood was collected from the cheeks of the mice in each group and then measured for various hematological indexes, and the body weight changes were recorded and plotted. […] Mice that failed in modeling were excluded and were not included in any drug group.
Method of administration: Mice were administered by gavage at 8 am every day for 28 consecutive days. During gavage, the mice in each group got free access to water and fed normal diet. The mice in the blank control group and the model control group were given the same volume of distilled water, the mice in the positive drug group were given a drug with an Fe content of 0.039 mg/kg, the mice in FeSO4 group were given a drug with an Fe content of 0.039 mg/kg, and the mice in the low-dose, medium-dose and high-dose groups of the Bletilla striata polysaccharide-iron (III) complex were given drugs with Fe contents of 0.0195 mg/kg, 0.039 mg/kg, and 0.078 mg/kg, respectively. Except the blank control group, the other six groups were given a low-iron feed. The body weight was weighed, recorded, and plotted once a week, and the animal state was observed.
Sample collection: After the last administration by gavage, the mice in each group got free access to water for 12 hours and sacrificed, whole blood was collected from the heart to determine various biochemical indexes, including hemoglobin content (Hb) in red blood cells, red blood cell count (RBC), hematocrit (HCT), mean corpuscular volume (MCV), mean corpuscular hemoglobin content (MCH), mean corpuscular hemoglobin concentration (MCHC), red blood cell volume distribution width (RDW), serum iron (SI) content, total iron binding capacity (TIBC), and erythropoietin (EPO). Liver and spleen tissues were taken, weighed, and recorded, and the organ index was calculated. The organ coefficient was calculated according to the following equation, and a histogram was plotted for analysis: […]

[1] = Fe 0.039 mg/kg (medium-dose group), gavage 28 days
[2] = gavage 28 days, complex low-, medium- and high-dose groups, Niferex and FeSO4 Fe 0.039 mg/kg

For ferrous sulfate [FeSO4], the HCT [1] was 0.29 ± 0.05, the MCH [1] was 17.83 ± 0.63 and the MCHC [1] was 400.49 ± 16.03. The MCV [1] was 51.20 ± 2.07, the RBC value [1] was 6.85 10^12/L and the RDW [1] was 25.56 ± 2.99. The “effect on EPO compared with model group” value (Fe 0.039 mg/kg, gavage 28 days) was “no regulatory effect on EPO”, the “liver index compared with model group” value (Fe 0.039 mg/kg, gavage 28 days) was “not strong” and the “body weight after 28 days of administration (comparison between groups)” value (Fe 0.039 mg/kg, gavage daily 28 days) was “extremely significantly different from that in the control group”. The “Hb value compared with control group” value [2] was “not significantly different from that in the control group” and the “effect on total iron binding capacity (TIBC)” value [2] was “best effect”.
